Reference: US20160030416A1, “METHODS OF TREATING B2-BRADYKININ RECEPTOR MEDIATED ANGIOEDEMA” (SHIRE HUMAN GENETIC THERAPIES, INC., priority 2013, published 2016)

Tested on: BK-induced human umbilical vein contractions
Assay: cells
Description: The inhibition effect of CFMQ on bradykinin induced […] was examined in an ex vivo functional assay of human umbilical vein contraction, which is considered a gold standard for bradykinin activity measurements. […] Firazyr®). Following a 30 minute incubation, BK-induced vein contractions were initiated in a cumulative manner (final concentration of 10 μM), followed by maximal calibration contraction induction by 10 μM serotonin. The tension increase for each dose response was calculated in relation to the (maximal) response towards serotonin, graphed as a dose-response curve and used to calculate an effective concentration at 50% (EC50) value (FIG. 6)

- EC50: 2.5 nM
SMILES: NC(N)=NCCC[C@@H](N)C(=O)N[C@@H](CCCN=C(N)N)C(=O)N1CCC[C@H]1C(=O)N1C[C@H](O)C[C@H]1C(=O)NCC(=O)N[C@@H](Cc1cccs1)C(=O)N[C@@H](CO)C(=O)N1Cc2ccccc2C[C@@H]1C(=O)N1[C@H](C(=O)N[C@@H](CCCN=C(N)N)C(=O)O)C[C@@H]2CCCC[C@@H]21 [Firazyr® (icatibant), icatibant, reference compound]
